Measured values reported in ChEMBL document CHEMBL6074686 (Eur J Med Chem, 2025).
The source made the active and inactive calls. No cut-off for these calls is given here.

Legend:
SK-OV-3 [1] = assay: Antitumor activity against human SK-OV-3 cells assessed as reduction in cell viability incubated for 72 hrs by CCK8 assay; assay type: functional, cell-based; conditions: SK-OV-3, 72 h
MDA-MB-231 = assay: Antitumor activity against human MDA-MB-231 cells assessed as reduction in cell viability incubated for 72 hrs by CCK8 assay; conditions: MDA-MB-231, 72 h
SK-OV-3 [2] = assay: Inhibition of colony formation in human SK-OV-3 cells at 2.5 nM incubated for 12 days by crystal violet staining based assay relative to control; assay type: functional; conditions: SK-OV-3, 288 h, time 12 day
MCF7 [3] = assay: Inhibition of colony formation in human MCF7 cells at 50 nM incubated for 72 hrs by crystal violet staining based assay relative to control; assay type: functional
SK-OV-3 [4] = assay: Induction of cell cycle arrest in human SK-OV-3 cells assessed as increase in G2/M phase cells at 5 nM incubated for 24 hrs PI staining based flow cytometric analysis (reference value: 24.6 +/- 2.0%); assay type: functional
SK-OV-3 [5] = assay: Induction of cell cycle arrest in human SK-OV-3 cells assessed as increase in G2/M phase cells at 10 nM incubated for 24 hrs PI staining based flow cytometric analysis (reference value: 24.6 +/- 2.0%); assay type: functional
SK-OV-3 [6] = assay: Induction of cell cycle arrest in human SK-OV-3 cells assessed as increase in G2/M phase cells at 20 nM incubated for 24 hrs PI staining based flow cytometric analysis (reference value: 24.6 +/- 2.0%); assay type: functional
SK-OV-3 [7] = assay: Induction of cell cycle arrest in human SK-OV-3 cells assessed as upregulation of Cyclin-B1 expression at 25 to 50 nM incubated for 24 hrs by Western blotting analysis; assay type: functional, cell-based; conditions: dose 25-50 nM
SK-OV-3 [8] = assay: Induction of cell cycle arrest in human SK-OV-3 cells assessed as decrease in Cyclin-B1 expression at 100 nM incubated for 24 hrs by Western blotting analysis; assay type: functional, cell-based
SK-OV-3 [9] = assay: Induction of apoptosis in human SK-OV-3 cells assessed as increase in apoptotic cells incubated for 48 hrs by IncuCyte live-cell imaging analysis; assay type: functional, cell-based; conditions: dose 2.5-40 nM
SK-OV-3 [10] = assay: Induction of apoptosis in human SK-OV-3 cells assessed as increase in apoptotic cells at 2.5 to 40 nM by IncuCyte live-cell imaging analysis; assay type: functional, cell-based; conditions: dose 2.5-40 nM, time lower 24.0 hrs, time upper […]
SK-OV-3 [11] = assay: Inhibition of cell migration in human SK-OV-3 cells assessed as reduction in wound closure at 3.125 nM incubated for 24 hrs by wound healing assay (reference value: 21.8 +/- 7.6%); assay type: functional; conditions: SK-OV-3, 24 h, values are per cent of control
SK-OV-3 [12] = assay: Induction of apoptosis in human SK-OV-3 cells assessed as downregulation of cleaved-PARP expression at 100 nM incubated for 24 hrs by Western blotting analysis; assay type: functional, cell-based
MCF7 [13] = assay: Induction of apoptosis in human MCF7 cells assessed as downregulation of Bax expression at 25 to 50 nM incubated for 24 hrs by Western blotting analysis; assay type: functional, cell-based; conditions: dose 25-50 nM
MCF7 [14] = assay: Induction of apoptosis in human MCF7 cells assessed as upregulation of cleaved-PARP expression at 25 to 50 nM incubated for 24 hrs by Western blotting analysis; assay type: functional, cell-based; conditions: dose 25-50 nM
Tubulin (Homo sapiens) [15] = target: T1, Tubulin (Homo sapiens) (UniProt P68371+Q9H4B7+P0DPH7+P68366+Q13509+Q71U36+P04350+Q3ZCM7+P07437+P68363+Q9BQE3+Q6PEY2+Q13885+Q9BVA1+Q9BUF5); assay: Inhibition of tubulin polymerization (unknown origin) assessed as reduction in optical density at 340 nm at 20 uM relative to control; assay type: protein-complex assay
Tubulin (Homo sapiens) [16] = target: T1, Tubulin (Homo sapiens); assay: Inhibition of tubulin polymerization in human SK-OV-3 cells assessed as destruction of microtubule network at 20 nM incubated for 18 hrs by Alexa Fluor 488 staining based confocal immunofluorescent microscopic analysis; assay type: cell-based
SK-OV-3 [17] = assay: Inhibition of cell migration in human SK-OV-3 cells assessed as reduction in wound closure at 12.5 nM incubated for 24 hrs by wound healing assay (reference value: 21.8 +/- 7.6%); assay type: functional; conditions: SK-OV-3, 24 h, values are per cent of control
SK-OV-3 [18] = assay: Inhibition of cell migration in human SK-OV-3 cells assessed as wound closure ratio at 12.5 nM incubated for 24 hrs by wound healing assay (reference value: 100%); assay type: functional; set-up: scale not given: the % may be the effect or the level left
MCF7 [19] = assay: Inhibition of cell migration in human MCF7 cells assessed as wound closure ratio at 1.25 nM incubated for 24 hrs by wound healing assay (reference value: 100%); assay type: functional; set-up: scale not given: the % may be the effect or the level left
MCF7 [20] = assay: Inhibition of cell migration in human MCF7 cells assessed as wound closure ratio at 5 nM incubated for 24 hrs by wound healing assay (reference value: 100%); assay type: functional; set-up: scale not given: the % may be the effect or the level left
MCF7 [21] = assay: Inhibition of cell migration in human MCF7 cells assessed as wound closure ratio at 20 nM incubated for 24 hrs by wound healing assay (reference value: 100%); assay type: functional; set-up: scale not given: the % may be the effect or the level left
MCF7 [22] = assay: Inhibition of cell migration in human MCF7 cells assessed as increase in cell density at 0 to 10 nM incubated for 24 hrs by wound healing assay; assay type: functional, cell-based; conditions: dose 0-10 nM
SK-OV-3 [23] = assay: Inhibition of cell migration in human SK-OV-3 cells assessed as ratio of migrated cells at 5 nM incubated for 24 hrs by Transwell assay (reference value: 100 %); assay type: functional; set-up: scale not given: the % may be the effect or the level left
SK-OV-3 [24] = assay: Inhibition of cell migration in human SK-OV-3 cells assessed as ratio of migrated cells at 10 nM incubated for 24 hrs by Transwell assay (reference value: 100 %); assay type: functional; set-up: scale not given: the % may be the effect or the level left
SK-OV-3 [25] = assay: Inhibition of cell migration in human SK-OV-3 cells assessed as ratio of migrated cells at 20 nM incubated for 24 hrs by Transwell assay (reference value: 100 %); assay type: functional; set-up: scale not given: the % may be the effect or the level left
MCF7 [26] = assay: Inhibition of cell migration in human MCF7 cells assessed as area of migrated cells at 3.125 nM incubated for 24 hrs by crystal violet staining based inverted microscopic analysis (reference value: 18.5 +/- 0.3 mm^3); assay type: functional
MCF7 [27] = assay: Inhibition of cell migration in human MCF7 cells assessed as ratio of migrated cells at 6.25 nM incubated for 24 hrs by crystal violet staining based inverted microscopic analysis (reference value: 100%); assay type: functional; set-up: scale not given: the % may be the effect or the level left
MCF7 [28] = assay: Inhibition of cell migration in human MCF7 cells assessed as ratio of migrated cells at 50 nM incubated for 24 hrs by crystal violet staining based inverted microscopic analysis (reference value: 100%); assay type: functional; set-up: scale not given: the % may be the effect or the level left
SK-OV-3 [29] = assay: Antitumor activity against human SK-OV-3 cells xenografted xenografted in female BALB/c nude mouse assessed as downregulation of CD-31 expression level in tumor at 10 mg/kg, […] via tail vein once every 2 to 3 days by immunohistochemistry analysis; assay type: functional, organism-based; conditions: time 2-3 day
[30] = Toxicity in female BALB/c nude mouse xenografted with human SK-OV-3 cells assessed as animal death at 15 mg/kg, administered via tail vein for 5 days and measured daily; assay type: organism-based; conditions: in vivo, iv, 120 h, time 5 day
[31] = Toxicity in female BALB/c nude mouse xenografted with human SK-OV-3 cells assessed as effect on physiological status at 15 mg/kg, administered via tail vein for 5 days and measured daily; assay type: organism-based; conditions: in vivo, iv, 120 h, time 5 day
SK-OV-3 [32] = assay: Antitumor activity against human SK-OV-3 cells xenografted xenografted in female BALB/c nude mouse assessed as decrease in Ki-67 expression level in tumor at 10 mg/kg, […] via tail vein once every 2 to 3 days by immunohistochemistry analysis; assay type: functional, organism-based; conditions: time 2-3 day

CNc1nc(N2CCCc3cc(OC)ccc32)c2cc(F)ccc2n1
IC50 (SK-OV-3 [1]): 0.8 nM
IC50 (MDA-MB-231): 1 nM
inhibition at 0.0025 µM (SK-OV-3 [2]): 56.2%
inhibition at 0.05 µM (MCF7 [3]): 42.2%
Activity (SK-OV-3 [4]): 29.6%
Activity (SK-OV-3 [5]): 64.5%
Activity (SK-OV-3 [6]): 90.6%
Activity (SK-OV-3 [7]): inactive
Activity (SK-OV-3 [8]): Active
Activity (SK-OV-3 [9]): Dose-dependent-effect
Activity (SK-OV-3 [10]): Time-dependent-effect
response, % of control at 0.003125 µM (SK-OV-3 [11]): 22.8%
Activity (SK-OV-3 [12]): inactive
Activity (MCF7 [13]): inactive
Activity (MCF7 [14]): Active
inhibition (Tubulin (Homo sapiens) [15]): 100%
inhibition (Tubulin (Homo sapiens) [16]): Active
response, % of control at 0.0125 µM (SK-OV-3 [17]): 14.3%
Activity (SK-OV-3 [18]): 65.8%
Activity (MCF7 [19]): 105.5%
Activity (MCF7 [20]): 97.3%
Activity (MCF7 [21]): 72.4%
inhibition (MCF7 [22]): Active
Activity (SK-OV-3 [23]): 48.8%
Activity (SK-OV-3 [24]): 22.7%
Activity (SK-OV-3 [25]): 11.9%
Activity (MCF7 [26]): 17.5 mm3
Activity (MCF7 [27]): 88.6%
Activity (MCF7 [28]): 11.7%
Activity (SK-OV-3 [29]): Active
Activity [30]: Non-toxic
Activity [31]: Toxic
Activity (SK-OV-3 [32]): Active
